Assay results as given in article PMC9290910, “Neuropilin‐1 is required for endothelial cell adhesion to soluble vascular endothelial growth factor receptor 1” (The Febs Journal, 2021).
Where no end group is shown, it is not given here.

Tests used:
α5β1 integrin = tested on: α5β1 integrin; design: method as in 2 sources, one per row (each row's own in cited_ref): ref 34, 36 = [34]; PMID 18184864; doi:10.1182/blood-2007-03-077537; 34 Soro S , Orecchia A , Morbidelli L , Lacal PM , Morea V , Ballmer‐Hofer K , Ruffini F , Ziche M , D'Atri S , Zambruno G et al . ( 2008 ) A proangiogenic peptide derived from vascular endothelial gr || [36]; PMID 18682321; doi:10.1016/j.ejca.2008.06.032; 36 Lacal PM , Morea V , Ruffini F , Orecchia A , Dorio AS , Failla CM , Soro S , Tentori L , Zambruno G , Graziani G et al . ( 2008 ) Inhibition of endothelial cell migration and angiogenesis by a vas ||| ref 34 = [34]; PMID 18184864; doi:10.1182/blood-2007-03-077537; 34 Soro S , Orecchia A , Morbidelli L , Lacal PM , Morea V , Ballmer‐Hofer K , Ruffini F , Ziche M , D'Atri S , Zambruno G et al . ( 2008 ) A proangiogenic peptide derived from vascular endothelial gr; conditions: cited from earlier work
[1] = tested on: α5β1 integrin signalling in ECs; assay: Signalling activated by EC adhesion; type: cell-based; conditions: myristoylated alanine‐rich C‐kinase substrate up-regulation, Rac1 activation; data not shown
angiogenesis = conditions: cited from earlier work
Excerpt: (§1) To dissect whether interaction of NRP‐1 with the transmembrane or the soluble isoform of VEGFR‐1 was required for EC adhesion to sVEGFR‐1, we performed EC adhesion assays by substituting sVEGFR‐1 with a different adhesion substrate, named peptide 12.

[2] = tested on: EC (HUVEC) adhesion to peptide 12; conditions: cited from earlier work
Excerpt: as §1

[3] = tested on: EC (HUVEC) adhesion to peptide 12; assay: Cell adhesion assay, EC adhesion to peptide 12; type: cell-based, human; conditions: plates coated with 500 µg·mL^−1 peptide 12
Experimental: Human umbilical vein endothelial cells (HUVEC) were isolated from freshly delivered umbilical cords, as previously described, cultured in Endothelial Cell Growth Medium‐2 Kit from Clonetics (EGM‐2, CC4176, Lonza, Basel, Switzerland), and used up to passage 6. For functional assays, HUVEC were resuspended in Endothelial Basal Medium‐2 (EBM‐2, CC3156, Lonza). A pool of cells derived from four different individuals was used.
Solid support for adhesion assay was prepared by incubating immunological 96‐multiwell plates with 20 µg·mL^−1 VEGFR‐1/Fc chimera, or fibronectin solubilized in PBS. After 2 h, the coating solution was removed, and the well surface was blocked with 3% BSA in PBS for 18 h, before plating ECs in serum‐free medium at 3 × 10^4 cells per well. After incubation at 37 °C for 1 h, the wells were washed with PBS and attached cells were fixed with 3% formaldehyde and stained with 0.5% crystal violet. Attachment efficiency was determined by quantitative dye extraction and spectrophotometric measurement of the absorbance at 540 nm, using a Microplate reader 3550‐UV (Bio‐Rad). In competition experiments, peptides Flt2‐11, scrambled Flt2‐11, Flt2‐8 or Flt2‐5, at 20 µg·mL^−1, were added during the adhesion assay. Adhesion to peptide 12 was carried out by using maleic anhydride activated microplates (Reacti‐Bind, Pierce, Rockford, IL, USA) coated with 500 µg·mL^−1 of the peptide.

NRP‐1 = assay: SPR, VEGFR‐1 binding to immobilized NRP‐1; design: species or system human; conditions: NRP‐1 immobilized, VEGFR‐1 0.6-5 nM, 1:1 Langmuir model
Experimental: Fig. 2 Flt2‐11 peptide inhibits NRP‐1 binding to VEGFR‐1. SPR analysis of the interaction between VEGFR‐1 and NRP‐1 in peptide absence (A), or presence of Flt2‐11 peptide (B) or scrambled Flt2‐11 peptide (C). NRP‐1 is immobilized on the sensor chip. (A) VEGFR‐1 is injected at different concentrations (from bottom to top: 0.6 nM, cyan; 1 nM, red; 2 nM, green; 2.5 nM, blue; and 5 nM, black). […] (B) VEGFR‐1 is injected at 5 nM together with peptide Flt2‐11 at different concentrations (from top to bottom: 0, black; 5 nM, blue; 15 nM, green; 45 nM, red; 100 nM, cyan; and 800 nM, magenta). […] (C) VEGFR‐1 is injected at 5 nM together with ‘scrambled’ Flt2‐11 peptide at different concentrations (from top to bottom: 0, black; 0.5 μM, blue; 950 μM, geen; and […], red).
SPR experiments were carried out using a BIACORE X system (Biacore AB, Uppsala, Sweden). […] The reaction was carried out in 20 mM sodium acetate at pH 5.0, which is about 2 points below the theoretical NRP‐1 isoelectric point calculated using the program pI‐tool. […]
RU express the mass concentration‐dependent changes in the observed SPR signal, that is, the refractive index on the sensor chip surface. Changes in this signal are determined by the interaction between the immobilized protein (i.e., either NRP‐1 or VEGFR‐1) with the analyte protein (i.e., VEGFR‐1/Fc, α5β1 integrin or semaphorin 3A). […]

[4] = tested on: α5β1 integrin signalling in ECs; design: method as in PMID 24174428; conditions: phosphorylation of focal adhesion kinase or Shc; cited from earlier work

For “peptide 12: seven amino acid‐long peptide that maps on the second VEGFR‐1 Ig‐like domain (residues 219–225) (NYLTHRQ; also: biotin, position not given here)”, the “binding to α5β1 integrin” value (α5β1 integrin) is given as “able to directly bind α5β1 integrin”, the “signalling pathway activation by EC adhesion to peptide 12” value [1] is given as “also activated” and the “pro‐angiogenic stimulus” value (angiogenesis) is given as “pro‐angiogenic stimulus”. The “support of EC adhesion by peptide 12” value [2] was “support EC adhesion” and the “EC adhesion to peptide 12 in the absence of NRP‐1” value [3] was “ECs adhere to peptide 12 in the absence of NRP‐1”.

B1: VEGFR‐1: Recombinant human VEGFR‐1/Fc (321‐FL‐050), R&D Systems (protein)
chain: SKLKDPELSLKGTQHIMQAGQTLHLQCRGEAAHKWSLPEMVSKESERLSITKSACGRNGKQFCSTLTLNTAQANHTGFYSCKYLAVPTSKKKETESAIYIFISDTGRPFVEMYSEIPEIIHMTEGRELVIPCRVTSPNITVTLKKFPLDTLIPDGKRIIWDSRKGFIISNATYKEIGLLTCEATVNGHLYKTNYLTHRQTNTIIDVQISTPRPVKLLRGHTLVLNCTATTPLNTRVQMTWSYPDEKNKRASVRRRIDQSNSHANIFYSVLTIDKMQNKDKGLYTCRVRSGPSFKSVNTSVHIYDKAFITVKHRKQQVLETVAGKRSYRLSMKVKAFPSPEVVWLKDGLPATEKSARYLTRGYSLIIKDVTEEDAGNYTILLSIKQSNVFKNLTATLIVNVKPQIYEKAVSSFPDPALYPLGSRQILTCTAYGIPQPTIKWFWHPCNHNHSEARCDFCSNNEESFILDADSNMGNRIESITQRMAIIEGKNKMASTLVVADSRISGIYICIASNKVGTVGRNISFYITDVPNGFHVNLEKMPTEGEDLKLSCTVNKFLYRDVTWILLRTVNNRTMHYSISKQKMAITKEHSITLNLTIMNVSLQDSGTYACRARNVYTGEEILQKKEITIRDQEAPYLLRNLSDHTVAISSSTTLDCHANGVPEPQITWFKNNHKIQQEPGIILGPGSSTLFIERVTEEDEGVYHCKATNQKGSVESSAYLTVQGTSDKSNLE
modifications: left off: Fc, end not stated, kept
notes: Recombinant human VEGFR‐1/Fc (321‐FL‐050), R&D Systems
For B1, the k off (NRP‐1) is given as 0.0003 s⁻¹, the k on (NRP‐1) is given as 12000 M⁻¹ s⁻¹ and the “activation of canonical α5β1 integrin signalling by EC adhesion to sVEGFR‐1” value [4] is given as “does not activate canonical α5β1 integrin signalling”.
